Results on five molecules are retold here after patent publication US11629123B2, “Selenopsammaplin A and derivative thereof, preparation method therefor, and composition for preventing and treating cancer, containing same as active ingredients” (priority 2017, dated 2023).

“Also recorded” adds a separate entry of the source. Read-outs that look alike come from different tables or passages of the source.

Format in all cases: cell-based
For assay [1], the system named is colorectal cancer cell line HCT116. Description: cells. As to conditions: Homo sapiens. On the procedure: (§1) To confirm the in vitro growth inhibitory efficacy of the samples prepared in Examples 1 to 28 against human lung cancer and colorectal cancer cell lines, the experiments were performed as follows by applying the method described in the literature (Lee S K et al ([…]) Chem Biol Interact 115:215-28). A human lung cancer cell line A549 and a colorectal cancer cell line HCT116 were acquired from the American Type Culture Collection (ATCC, Manassas, Va., USA) and used.
(§2) A549, HCT116 cells were subcultured once or twice weekly under conditions of 37° C. and 5% CO2 using Roswell Park Memorial Institute (RPMI) Medium 1640 (RPMI 1640) containing 10% heat-inactivated Fetal Bovine Serum (FBS), 100 units/mL penicillin, 100 μg/mL streptomycin, and 250 ng/mL amphotericin B. All cells were thawed from liquid nitrogen, subcultured three times or more, and then used in the experiment.
(§3) The effects of the compounds obtained in Examples 1 to 28 on cell growth were measured by a sulforhodamine B (SRB) method (Lee et al (1998) Chem Biol Interact 115: 215-28).
(§4) Specifically, the human lung cancer and colon cancer cell lines used in the present invention were subcultured in a RPMI medium containing 10% FBS, 1% PSF, and the like, 10 μl of a sample dissolved in 10% DMSO and 190 μl (5×10^4 cells/ml) of the cell suspension were placed in each well of a 96-well plate. 190 μl of the cell suspension was placed in at least 16 wells, cultured for 30 minutes, and used as a negative control (zero-day control) before the experiment. The cultured cells were fixed with 10% trichloroacetic acid (TCA) and then stained with an SRB solution, the staining solution was dissolved with 10 mM Tris-base, and absorbance was measured at 515 nm. Using the cell culture in 10% DMSO as a control, cell viability according to the treatment with each test sample was measured using the following Equation 1. % Cell viability=(OD(sample)−OD(0-day))/(OD(10% DMSO)−OD(0-day))×100 [Equation 1]
(§5) When the control in which the sample was not treated was defined as 100%, the value of the sample treatment group was shown as a percentage with respect to the control, and each test sample treatment was determined by the mean value±SEM of the duplicate or triplicate test. The IC50 value is the concentration of the test sample for 50% viability.

Assay [2] has as its system human lung cancer cell line A549. Description: cells. As to conditions: Homo sapiens. As to the method: as §1, §2, §3, §4, §5
Assay [3] concerns human lung cancer and colorectal cancer cell lines. Description: In vitro growth inhibition (SRB), summary over both cell lines. As to conditions: compared with control compound etoposide. As to the method: as §1, §2, §3, §4, §5
Setting [4] is: HCT-116, read-out: HCT116-LC50, Table 2, SRB, concentration for 50% viability.
Setting [5] is: A549, read-out: A549-LC50, Table 2, SRB, concentration for 50% viability.

For `O=C(NCC[Se][Se]CCNC(=O)/C(Cc1ccc([N+](=O)[O-])cc1)=N/O)/C(Cc1ccc([N+](=O)[O-])cc1)=N/O` [SSM-12, (2E,2′E)-N,N′-(diselanediylbis(ethane-2,1-diyl))bis(2-(hydroxyimino)-3-(4-nitrophenyl)propanamide)], the CC50 in assay [1] (HCT-116, read-out: HCT116-LC50) is 90 nM; in assay [2] (A549, read-out: A549-LC50), 90 nM. For the same molecule, the “cancer cell growth inhibitory activity compared to etoposide” value in assay [3] was “higher inhibitory activity than a control compound etoposide; also recorded: excellent cancer cell growth inhibitory potential even compared to etoposide”.
Consider `CCOc1ccc(C/C(=N\O)C(=O)NCC[Se][Se]CCNC(=O)/C(Cc2ccc(OCC)cc2)=N/O)cc1` [SSM-10, (2E,2′E)-N,N′-(diselanediylbis(ethane-2,1-diyl))bis(3-(4-ethoxyphenyl)-2-(hydroxyimino)propanamide)], for which the CC50 in assay [1] (setting [4]) was 70 nM; in assay [2] (setting [5]), 50 nM. The “cancer cell growth inhibitory activity compared to etoposide” value in assay [3] was “higher inhibitory activity than a control compound etoposide; also recorded: excellent cancer cell growth inhibitory potential even compared to etoposide”.
As for `O=C(NCC[Se][Se]CCNC(=O)/C(Cc1ccccc1)=N/O)/C(Cc1ccccc1)=N/O` [SSM-4, (2E,2′E)-N,N′-(diselanediylbis(ethane-2,1-diyl))bis(2-(hydroxyimino)-3-phenylpropanamide)], the CC50 in assay [1] (HCT-116, read-out: HCT116-LC50) is 90 nM; in assay [2] (A549, read-out: A549-LC50), 80 nM. Also, in assay [3], the “cancer cell growth inhibitory activity compared to etoposide” value was “higher inhibitory activity than a control compound etoposide; also recorded: excellent cancer cell growth inhibitory potential even compared to etoposide”.
Consider `O=C(NCC[Se][Se]CCNC(=O)/C(Cc1ccc(O)c(F)c1)=N/O)/C(Cc1ccc(O)c(F)c1)=N/O` [SSM-3, (2E,2′E)-N,N′-(diselanediylbis(ethane-2,1-diyl))bis(3-(3-fluoro-4-hydroxyphenyl)-2-(hydroxyimino)propanamide)], for which the values for the CC50 in assay [1] (setting [4]) and in assay [2] (setting [5]) were 50 nM and 60 nM, respectively. Further, the “cancer cell growth inhibitory activity compared to etoposide” value in assay [3] was “higher inhibitory activity than a control compound etoposide; also recorded: excellent cancer cell growth inhibitory potential even compared to etoposide”.
The like results for `O=C(NCC[Se][Se]CCNC(=O)/C(Cc1ccc(O)c(Br)c1)=N/O)/C(Cc1ccc(O)c(Br)c1)=N/O` [SSM-1, (2E,2′E)-N,N′-(diselanediylbis(ethane-2,1-diyl))bis(3-(3-bromo-4-hydroxyphenyl)-2-(hydroxyimino)propanamide)] were, in that order, 10 nM, 30 nM and “higher inhibitory activity than a control compound etoposide; also recorded: excellent cancer cell growth inhibitory potential even compared to etoposide”.
